These compounds were tested against recombinant human PI3Kγ (aa144-1102)-6His (Homo sapiens (Human), UniProt P48736) (assay: Test A: Enzymatic Activity Assay for Rec Human PI3Kγ (ADP-Glo)). Details: 20 μM ATP, 80 μM DiC8-PIP2, 1.2 nM PI3Kγ, 15 min pre-incubation, 60 min reaction.
Format: biochemical
Procedure: Pharmacological Activity Test A: Enzymatic Activity Assay for Rec Human PI3Kγ
The activity of recombinant human PI3Kγ (aa144-1102)-6His was determined by measuring the ADP level after phosphorylation of DiC8-PIP2 using a commercially available ADP-Glo™ kit from Promega. The assay was carried out in white low volume 384 well plates in a final volume of 14 μl at rt. The assay conditions contained the following: 50 mM Tris buffer pH 7.4, 2.1 mM DTT, 3 mM MgCl2, 0.05% CHAPS, 20 μM ATP, 80 μM DiC8-PIP2 and 1.2 nM PI3Kγ. […] Routinely, inhibitors were pre-incubated with 3 μl of PI3Kγ for 15 min prior to the addition of […] substrate mixture for a further 60 min enzyme reaction. The phosphorylation was stopped with the addition of 3 μl ADP-Glo™ reagent (stop solution) followed by a 40 min incubation. Prior to detection 6 μl of ADP-Glo™ Kinase Detection Reagent was added and the plates were read in a micro plate reader using a Luminescence filter.

Sequence of recombinant human PI3Kγ (aa144-1102)-6His (P48736 144-1102): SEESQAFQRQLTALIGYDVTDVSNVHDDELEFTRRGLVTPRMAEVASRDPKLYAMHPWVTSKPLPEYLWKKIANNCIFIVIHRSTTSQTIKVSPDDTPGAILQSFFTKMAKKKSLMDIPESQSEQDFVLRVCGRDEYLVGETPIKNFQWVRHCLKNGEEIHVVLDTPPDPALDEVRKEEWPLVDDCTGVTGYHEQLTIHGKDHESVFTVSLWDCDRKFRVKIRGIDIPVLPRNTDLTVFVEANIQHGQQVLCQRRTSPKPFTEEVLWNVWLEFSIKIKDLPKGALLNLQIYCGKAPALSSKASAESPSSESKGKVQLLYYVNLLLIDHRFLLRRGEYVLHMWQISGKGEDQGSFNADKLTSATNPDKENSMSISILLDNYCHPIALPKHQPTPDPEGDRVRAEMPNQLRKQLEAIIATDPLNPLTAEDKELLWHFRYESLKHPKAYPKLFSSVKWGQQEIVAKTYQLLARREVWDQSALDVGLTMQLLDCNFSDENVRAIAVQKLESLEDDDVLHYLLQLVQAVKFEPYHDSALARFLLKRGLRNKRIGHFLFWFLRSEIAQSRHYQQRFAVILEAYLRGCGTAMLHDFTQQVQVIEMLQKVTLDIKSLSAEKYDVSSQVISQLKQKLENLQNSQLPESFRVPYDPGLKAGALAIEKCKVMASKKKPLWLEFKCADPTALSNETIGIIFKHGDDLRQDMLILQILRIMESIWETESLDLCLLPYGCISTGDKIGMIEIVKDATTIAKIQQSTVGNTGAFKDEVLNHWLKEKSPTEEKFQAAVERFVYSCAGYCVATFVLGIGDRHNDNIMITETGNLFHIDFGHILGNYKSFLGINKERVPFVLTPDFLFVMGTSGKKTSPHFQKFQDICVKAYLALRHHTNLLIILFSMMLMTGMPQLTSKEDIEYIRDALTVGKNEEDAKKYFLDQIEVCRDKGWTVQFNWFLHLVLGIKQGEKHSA

Row | SMILES | PI3Kγ activity, pIC50
1 | CNS(=O)(=O)c1cc(-c2sc(NC(C)=O)nc2C)cc2c1C(=O)N([C@@H](C)C(C)(C)C)C2 [Example 33, N-(5-{2-[(2S)-3,3-Dimethylbutan-2-yl]-7-(methylsulfamoyl)-1-oxo-2,3-dihydro-1H-isoindol-5-yl}-4-methyl-1,3-thiazol-2-yl)acetamide] | 8.8
2 | CNS(=O)(=O)c1cc(-c2sc(NC(C)=O)nc2C)cc2c1C(=O)N(C(C)(C)C)C2 [Example 34, N-{5-[2-tert-Butyl-7-(methylsulfamoyl)-1-oxo-2,3-dihydro-1H-isoindol-5-yl]-4-methyl-1,3-thiazol-2-yl}acetamide] | 8.8
3 | CNS(=O)(=O)c1cc(-c2sc(NC(C)=O)nc2C)cc2c1C(=O)N([C@@H](C)C(F)(F)F)C2 [Example 35, N-(4-Methyl-5-{7-(methylsulfamoyl)-1-oxo-2-[(2S)-1,1,1-trifluoropropan-2-yl]-2,3-dihydro-1H-isoindol-5-yl}-1,3-thiazol-2-yl)acetamide] | 9.0
4 | CC(=O)Nc1nc(C)c(-c2cc3c(c(S(=O)(=O)Nc4cccc(C#N)c4)c2)C(=O)N([C@@H](C)C2CC2)C3)s1 [Example 36, N-(5-{7-[(3-Cyanophenyl)sulfamoyl]-2-[(1S)-1-cyclopropylethyl]-1-oxo-2,3-dihydro-1H-isoindol-5-yl}-4-methyl-1,3-thiazol-2-yl)acetamide] | 9.3
5 | CC(=O)Nc1nc(C)c(-c2cc3c(c(S(=O)(=O)Nc4cccc(C#N)c4)c2)C(=O)N(C(C)C)C3)s1 [Example 37, N-(5-{7-[(3-Cyanophenyl)sulfamoyl]-1-oxo-2-(propan-2-yl)-2,3-dihydro-1H-isoindol-5-yl}-4-methyl-1,3-thiazol-2-yl)acetamide] | 9.0

Reference: patent publication US10858355B2, “Inhibitors of phosphatidylinositol 3-kinase gamma” (AstraZeneca AB, priority 2016, dated 2020)
